# Experimental data: paper PMC11311998, “AR71, Histamine H3 Receptor Ligand—In Vitro and In Vivo Evaluation (Anti-Inflammatory Activity, Metabolic Stability, Toxicity, and Analgesic Action)” (International Journal of Molecular Sciences, 2024)
# Experiments:
# CCI-exposed mice = test: von Frey test in CCI neuropathic pain model; assay type: in vivo, mouse
# Protocol: The effects of a single intraperitoneal (i.p.) injection of AR71 at doses of 5, 10, and 20 mg/kg on mechanical (von Frey test) and thermal (cold plate and tail flick tests) stimulus were evaluated on day 14 following sciatic nerve injury (Figure 15). There were seven to eight animals per group. All these tests were performed in three time series after the administration of the compound. In the case of the von Frey test—after 30, 90, and 180 min; the cold plate test—after 35, 95, and 185 min; and the tail flick test—after 40, 100, and 190 min.
# The mice were randomly divided into four experimental groups. One group received a vehicle treatment (10% DMSO/10%(2-Hydroxypropyl)-β-cyclodextrin/water for injection, i.p.), while the other three groups were administered with AR71 at doses of 5, 10, or 20 mg/kg of body weight (b.w.), i.p. Baseline measurements for all tests were conducted before the compounds were injected, and the results are presented as percentages of the maximal possible effect (% MPE). […] All data from behavioural tests were analysed using a one-way ANOVA with Bonferroni’s multiple comparison post hoc test.
# The model of chronic constriction injury (CCI) to the sciatic nerve was established according to Bennett and Xie. The surgical method was performed under isoflurate anaesthesia (2% isoflurane in 100% oxygen with a flow of 1.5 L/min). Below the right hipbone, a small incision was performed, and three ligatures (4/0 silk) around the sciatic nerve were made (with 1 mm spacing) until a brief twitch in the respective hind limb was observed. The CCI procedure leads to hypersensitivity to mechanical and thermal stimuli. Behavioural tests were performed on day 14 after the injury. AR71 was dissolved in 10% DMSO/10% (2-Hydroxypropyl)-β-cyclodextrin/water for injection and was given i.p. at doses of 5, 10, and 20 mg/kg of body weight (injection volume 10 mL/kg of bw). The control group received the vehicle (10% DMSO/10% (2-Hydroxypropyl)-β-cyclodextrin/water for injection).
# Behavioural experiments were performed between 8:00 a.m. and 2:00 p.m. […]
# human H3R = biological target: human H3R; set-up: method as in PMID 36370200; details: cited from earlier work
# SH-SY5Y cells = test: mitochondrial membrane potential (JC-10); assay type: cell-based, human; details: 0.78 μM
# Protocol: Neurotoxin-like rotenone induces oxidative stress inside cells that might influence mitochondrial membrane potential (MMP). Maintaining unaffected MMP is essential for neuroprotection. In our study, we tested the effect of AR71 on MMP in the presence and absence of rotenone.
# Next, the effect of AR71 (0.78 μM) when co-treated with rotenone was tested; 1 μM carbonyl cyanide m-chlorophenylhydrazone (CCCP) was used as a positive control.
# The MMP was measured by a commercially available kit (Sigma Aldrich, MAK159, for live cells) that utilises a cationic, lipophilic dye JC-10. It allows for ratiometric analysis of mitochondrial membrane potential, where a shift from orange (λEX/λEM: 540 nm/590 nm) to green fluorescence (λEX/λEM: 490 nm/525 nm) is indicative of compromised mitochondria. For this assay, the SH-SY5Y cells (1 × 10^4 cells/well) were seeded in a black-sided clear bottom 96-well plate (Thermo Scientific Nunclon^TM Delta Surface no. 137101, Denmark) in a complete culture medium. First, to choose the optimal concentration of rotenone in this assay, a dose–response effect of rotenone (0.05, 0.5, 5, 50 μM) was studied. Next, the cells were pre-treated with AR71 (0.78 μM) for 1 h before rotenone stimulation (50 μM) for another 3 h. […] The positive control was carbonyl cyanide m-chlorophenylhydrazone (CCCP; 1 μM)—uncoupling agent on the proton gradient. After incubation, 50 μL/well of the JC-10 dye loading solution was added to each well with cells. The plate was incubated for 45 min in the incubator. Then, 50 μL/well of Assay Buffer B was added to each well, and the fluorescence was monitored immediately. The red/green fluorescence intensity ratio was used to calculate the results.
# human astrocytes = test: viability of human astrocytes (MTT assay); assay type: cell-based; details: for IC50: Homo sapiens, Astrocyte
# Protocol: We investigated the effect of AR71 in a wide range of concentrations (0.78–100 μM) on the viability of human astrocyte cell lines after 2, 24, 48, and 72 h of incubation (Figure 6). Prolonged incubation of human astrocytes with AR71 caused a dose-dependent decrease in cell viability.
# The astrocyte cell line from the human cerebral cortex was purchased from ScienCell Research Laboratories (San Diego, CA, USA; Cat no. 1800) and maintained according to the protocol recommended by the company (the ScienCell Research Laboratories’ protocol).
# The colorimetric MTT assay using 3-(4,5-dimethylthiazol-2-yl)-2,5-diphenyltetrazolium bromide (MTT; Sigma-Aldrich Chemical Co. Ltd., Saint Louis, MO, USA) was used for evaluation of astrocytes viability. The experiment was carried out following the procedure described in detail previously. Astrocytes were seeded onto 96-well plates at a final density of 10 × 10^3 cells/well. Following 24 h of culture, the cells were treated with AR71 (0.78–100 μM) for […], 24, 48, or 72 h. After the respective incubation periods, MTT solution was added to the cell culture for another four hours. Absorbance was measured at 570 nm using a BioTek EL 800× microplate reader (BioTek, Winooski, VT, USA), with the value directly proportional to the number of viable cells. Cell viability was calculated by the following formula: Viability [%] = (A/AC) × 100%, where A represents the absorbance of the investigated sample and AC represents the absorbance of the negative control (untreated cells). The positive control (vehicle) was 0.1% DMSO.
compound,measurement,setting,value
"COc1cc(/C=C/C(=O)c2ccc(OCCCN3CCCCC3)cc2)cc(OC)c1OC [AR71, (E)-3-(3,4,5-trimethoxyphenyl)-1-(4-(3-(piperidin-1-yl)propoxy)phenyl)prop-2-en-1-one]",effect in von Frey test vs vehicle,"CCI-exposed mice; 10 mg/kg i.p., 30 min after injection, p < 0.05",significant pain-relieving effects
same,effect in von Frey test vs vehicle,"CCI-exposed mice; 20 mg/kg i.p., 90 and 180 min after injection (p < 0.001 and p < 0.01), lower doses not effective",increased withdrawal thresholds
same,effect in von Frey test vs vehicle,"CCI-exposed mice; 20 mg/kg i.p., 30 min after injection, p < 0.001",significant pain-relieving effects
same,Ki,human H3R,0.024 µM
same,effect on MMP of compound alone,SH-SY5Y cells,did not affect mitochondrial membrane potential
same,minimisation of loss of MMP compared with rotenone-treated cells,"SH-SY5Y cells; 1 h pre-treatment, then rotenone 50 μM for 3 h",20%
same,effect on astrocyte viability at low concentrations,"human astrocytes; 1.56 and 3.12 μM, 48 h, did not persist after 72 h",statistically significant proliferation
same,IC50,human astrocytes; 2 h incubation,41.3 µM
same,IC50,human astrocytes; 24 h incubation,20.2 µM
same,IC50,human astrocytes; 48 h incubation,12.5 µM
same,IC50,human astrocytes; 72 h incubation,9.69 µM
